The target in one series is T1, human FOXP3 (FOXP3-6His) (Homo sapiens, UniProt Q9BZS1).
T1 construct: 6xHis (C); made in house; host or cells: E. coli BL21 (DE3)
T1 sequence (Q9BZS1 1-431): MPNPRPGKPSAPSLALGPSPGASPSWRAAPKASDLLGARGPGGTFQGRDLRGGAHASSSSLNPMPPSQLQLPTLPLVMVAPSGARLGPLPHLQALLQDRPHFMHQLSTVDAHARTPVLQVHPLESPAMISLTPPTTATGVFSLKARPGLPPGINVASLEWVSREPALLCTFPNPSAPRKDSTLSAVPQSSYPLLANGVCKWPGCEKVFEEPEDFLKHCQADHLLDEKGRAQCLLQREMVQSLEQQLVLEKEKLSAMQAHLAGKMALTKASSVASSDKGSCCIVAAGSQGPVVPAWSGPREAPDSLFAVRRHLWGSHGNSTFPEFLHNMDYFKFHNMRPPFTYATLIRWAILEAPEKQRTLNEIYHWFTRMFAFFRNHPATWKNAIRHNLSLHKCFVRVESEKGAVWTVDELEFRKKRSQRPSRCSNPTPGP
In words: Peptide binding to FOXP3 by surface plasmon resonance (SPR). Put shortly: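 C-terminally 6His-tagged human FOXP3, expressed in E. coli BL21(DE3) and Ni-affinity purified, was amine-coupled to a GLM chip (ProteOn XPR36). Peptides at 1–20 μM injected in triplicate in PBS, 0.005% Tween 20, pH 7.4, at 30 μl/min, with interspot reference. Binding given as ratio to reference peptide p60.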

The test system of another series is Hepa-129 cells. In words: Tumor rejection experiment, Hepa-129 cells s.c. Type of series: in vivo, C3H/HeN mice. As to conditions: peptide 50 μg/mice/day, days 10 to 20, combined with anti-PD1 antibodies. As for the experimental part: For tumor rejection experiments, Hepa-129 cells (10^6 cells/mouse), were injected subcutaneously (sc) in C3H/HeN mice (n=6). Ten days later, when the tumor reached 5 mm in diameter, mice were randomly divided into different experimental groups. A group of mice were treated i.p. with anti-PD1 antibodies (BE0146, BioXcell) (50 μg/mouse). Antibody administration was repeated one week after this first administration. A group of mice treated with anti-PD1 also received the cyclic peptide SEQ ID NO: 50 from days 10 to 20 (50 μg/mice/day). Tumor size, presented as the average of two perpendicular diameters (millimeters), was measured at regular intervals. Mice were sacrificed when the mean tumor diameter was greater than 20 mm. Mice were housed in appropriated animal care facilities during the experimental period and handled following the international guidelines required for experimentation with animals. The experiments were approved by institutional ethical committee.

Series [1] in a line: Mouse liver microsomal stability. It counts as in vitro ADME. Conditions: mouse liver microsomes. As for the experimental part:
(§1) The data collected were analyzed to calculate a half-life (t1/2, min) for tested peptides at a final concentration of 1 μM. Briefly, 5 μL of stock solution of tested peptide (10 mM) were diluted in 495 μL of 1:1 Methanol/Water (final concentration of 100 μM, 50% MeOH). Then, 50 μL of this intermediate solution were diluted in 450 μL of 100 mM potassium phosphate buffer to a concentration of 10 μM (working solution, 5% MeOH). The NADPH regenerating system contains β-Nicotinamide adenine dinucleotide phosphate (Sigma, Cat. # N0505), Isocitric acid (Sigma, Cat. #11252) and Isocitric dehydrogenase (Sigma, Cat. #12002) at a final concentration of 1 unit/mL at incubation.
(§2) Human liver microsomes were obtained from BD Gentest (Cat. #452117) and mouse liver microsomes from Xenotech (Cat. # M1000), to a final concentration of 0.7 mg protein/mL. A volume of 10 μL of peptide solution and 80 μL of microsome solution were added to a 96-well plate and incubated for 10 min at 37° C. The reaction was started by the addition of 10 μL of NADPH regenerating system and stopped by the addition of 300 μL of stop solution (ACN at 4° C., including 100 ng/mL Tolbutamide and 100 ng/mL of Labetalol as internal standard) at different incubation times (0, 5, 10, 20, 30 and 60 min). Concentrations of test compound were quantified by LC-MS/MS methodologies (Shimadzu LC 20-AD/API4000) using peak area ratio of analyte/internal standard and the percent loss of parent compound was calculated under each time point to determine the half-life.

In the next series the test system is CT26 tumor cells. Kind of series: Anti-tumor vaccination experiment (AH1 in IFA), CT26 challenge. Type of series: in vivo, BALB/c. As for the experimental part: For anti-tumor vaccination experiments, BALB/c animals immunized with 50 nanomol/mice of peptide AH1 emulsified in incomplete Freund adjuvant (IFA) (Casares et al., 2010, supra), were treated intraperitoneally with 10 nanomol/mice of the indicated Treg inhibitory peptide SEQ ID NO: 51 of the invention or with saline daily during 10 days. At day 10, mice were injected s.c. with 10^6 CT26 tumor cells. Tumor size was monitored twice a week with a calliper and it was expressed according to the formula V=(length×width2)/2. Mice were sacrificed when tumor size reached a volume greater than 4 cm^3.

Series [2] in a line: Human liver microsomal stability. Type of series: in vitro ADME. As to conditions: human liver microsomes. As for the experimental part:
as §1, §2

[3] abbreviates: 20 min, read-out: % Remaining after 20 min.
The mark [4] stands for this setting: 60 min, read-out: % Remaining after 60 min.

Where no end group is shown, it is not given here. Where only a bound is given, the exact number is not on record here.

“RAFQAFRKMWPFFAM [SEQ ID NO: 50] (cyclo(RAFQAFRKMWPFFAM); also: R1 and R2 form a linker birradical which is -C(=O)-) [head-to-tail cyclic peptide]”: the “increase in the binding to FoxP3 with respect to p60 (SEQ ID NO: 1)” value in the series with human FOXP3 (FOXP3-6His) is “more than 2100%”. In addition, the antitumor activity result with Hepa-129 cells was “remarkable antitumor activity”.
For the sequence “RDFQSFRKMWPFFAM [SEQ ID NO: 1, RDFQSFRKMWPFFAM, reference compound]”, the share remaining at 20 min, 1 μM in series [1] (setting [3]) and in series [2] (setting [3]) was 0% throughout. The share remaining at 1 h, 1 μM in series [1] (setting [4]) and in series [2] (setting [4]) was 0% each time. Moreover, the half-life in series [1] (peptide 1 μM) was below 2.5 min; in series [2] (peptide 1 μM, read-out: t1/2), below 2.5 min. For the same sequence, the “effect on growth of CT26 colon cancer tumor” value with CT26 tumor cells (10 nanomol/mice i.p. daily during 10 days after AH1/IFA, day 30 after injection of CT26) is reported as “not efficient”. Moreover, in the series on CT26 tumor cells (day 30 after injection of CT26 tumor cells), the tumor volume entry was “about 2000 mm^3”.

These data come from US10654896B2, “FoxP3-binding peptides and uses thereof” (FUNDACIÓN PARA LA INVESTIGACIÓN MÉDICA APLICADA, priority 2016, dated 2020).
